Laboratory results reported in patent US20240287107A1, “PRODRUGS OF DIMETHYLTRYPTAMINE AND DERIVATIVES THEREOF” (priority 2022, published 2024).

Test: Stability in mouse plasma
Format: in vitro ADME
Description: Chemical and plasma stability of prodrug Compound 1 was evaluated and the results enumerated in Table 7 and Table 8, respectively. PK studies of prodrug Compound 1 and metabolite (VLS-02-23-10) in mice were also conducted and both plasma exposure and brain exposure were analyzed as shown in FIGS. 1A-1C and FIGS. 2A-2B, respectively.

Row | Compound | T½
1 | CC(C)[N+](C)(CCOC(=O)C1c2ccccc2Oc2ccccc21)C(C)C [Propantheline] | 0.5682 h
2 | C[N+](C)(CCc1c[nH]c2ccccc12)COP(=O)([O-])O [Compound 1, ((2-(1H-indol-3-yl)ethyl)dimethyl-λ^4-azaneyl)methyl hydrogen phosphate] | 9.4723 h
